Test results taken from article PMC4508061, “Selectivity Profiling and Biological Activity of Novel β-Carbolines as Potent and Selective DYRK1 Kinase Inhibitors” (PLoS ONE, 2015).

Experiments:
Assay in all cases: ProQinase radiometric kinase panel
Conditions in all cases: mean of 2 exp.
BRK = BRK (Homo sapiens, UniProt Q13882)
PRKG1 = PRKG1 (Homo sapiens, UniProt Q13976)
EPHB3 = EPHB3 (Homo sapiens, UniProt P54753)
COT = COT (Homo sapiens, UniProt P41279)
GRK5 = GRK5 (Homo sapiens, UniProt P34947)
DCAMKL2 = DCAMKL2 (Homo sapiens, UniProt Q8N568)
CSF1-R = CSF1-R (Homo sapiens, UniProt P07333)
ERK2 = ERK2 (Homo sapiens, UniProt P28482)
MARK3 = MARK3 (Homo sapiens, UniProt P27448)
STK33 = STK33 (Homo sapiens, UniProt Q9BYT3)
LRRK2 = LRRK2 (Homo sapiens, UniProt Q5S007)
TTK = TTK (Homo sapiens, UniProt P33981)
B-RAF = B-RAF (Homo sapiens, UniProt P15056)
EPHA1 = EPHA1 (Homo sapiens, UniProt P21709)
JAK3 = JAK3 (Homo sapiens, UniProt P52333)
SNARK = SNARK (Homo sapiens, UniProt Q9H093)
CDK4/CycD1 = CDK4/CycD1 (Homo sapiens, UniProt P11802)
CDK3/CycE1 = CDK3/CycE1 (Homo sapiens, UniProt Q00526)
RPS6KA2 = RPS6KA2 (Homo sapiens, UniProt Q15349)
CDC42BPB = CDC42BPB (Homo sapiens, UniProt Q9Y5S2)
AKT3 = AKT3 (Homo sapiens, UniProt Q9Y243)
CK1-delta = CK1-delta (Homo sapiens, UniProt P48730)
CDK9/CycT1 = CDK9/CycT1 (Homo sapiens, UniProt P50750)
HCK = HCK (Homo sapiens, UniProt P08631)
EGF-R = EGF-R (Homo sapiens, UniProt P00533)
AXL = AXL (Homo sapiens, UniProt P30530)
CK1-gamma1 = CK1-gamma1 (Homo sapiens, UniProt Q9HCP0)
FGF-R1 = FGF-R1 (Homo sapiens, UniProt P11362)
FER = FER (Homo sapiens, UniProt P16591)
S6K-beta = S6K-beta (Homo sapiens, UniProt Q9UBS0)
ZAK = ZAK (Homo sapiens, UniProt Q9NYL2)
TYK2 = TYK2 (Homo sapiens, UniProt P29597)
FRK = FRK (Homo sapiens, UniProt P42685)
PHKG2 = PHKG2 (Homo sapiens, UniProt P15735)
FES = FES (Homo sapiens, UniProt P07332)
PAK1 = PAK1 (Homo sapiens, UniProt Q13153)
LYN = LYN (Homo sapiens, UniProt P07948)
CK2-alpha2 = CK2-alpha2 (Homo sapiens, UniProt P19784)
GRK4 = GRK4 (Homo sapiens, UniProt P32298)
Chain of GRK4 (P32298 whole entry): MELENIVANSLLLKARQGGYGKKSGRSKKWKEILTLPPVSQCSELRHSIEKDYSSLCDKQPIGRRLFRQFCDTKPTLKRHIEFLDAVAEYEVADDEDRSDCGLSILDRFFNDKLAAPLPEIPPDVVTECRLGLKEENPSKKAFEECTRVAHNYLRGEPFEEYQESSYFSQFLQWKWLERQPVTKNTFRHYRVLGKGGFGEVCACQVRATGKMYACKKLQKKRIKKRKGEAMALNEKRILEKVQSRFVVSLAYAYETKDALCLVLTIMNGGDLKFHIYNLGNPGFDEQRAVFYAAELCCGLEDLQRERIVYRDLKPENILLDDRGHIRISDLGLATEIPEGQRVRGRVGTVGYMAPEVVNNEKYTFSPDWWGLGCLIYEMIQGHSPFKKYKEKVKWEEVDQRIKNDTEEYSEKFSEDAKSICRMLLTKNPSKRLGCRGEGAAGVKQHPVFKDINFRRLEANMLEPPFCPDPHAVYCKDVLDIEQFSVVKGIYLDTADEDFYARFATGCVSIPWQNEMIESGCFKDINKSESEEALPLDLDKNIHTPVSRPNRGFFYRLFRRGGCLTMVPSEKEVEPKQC

Chain of FES (P07332 whole entry): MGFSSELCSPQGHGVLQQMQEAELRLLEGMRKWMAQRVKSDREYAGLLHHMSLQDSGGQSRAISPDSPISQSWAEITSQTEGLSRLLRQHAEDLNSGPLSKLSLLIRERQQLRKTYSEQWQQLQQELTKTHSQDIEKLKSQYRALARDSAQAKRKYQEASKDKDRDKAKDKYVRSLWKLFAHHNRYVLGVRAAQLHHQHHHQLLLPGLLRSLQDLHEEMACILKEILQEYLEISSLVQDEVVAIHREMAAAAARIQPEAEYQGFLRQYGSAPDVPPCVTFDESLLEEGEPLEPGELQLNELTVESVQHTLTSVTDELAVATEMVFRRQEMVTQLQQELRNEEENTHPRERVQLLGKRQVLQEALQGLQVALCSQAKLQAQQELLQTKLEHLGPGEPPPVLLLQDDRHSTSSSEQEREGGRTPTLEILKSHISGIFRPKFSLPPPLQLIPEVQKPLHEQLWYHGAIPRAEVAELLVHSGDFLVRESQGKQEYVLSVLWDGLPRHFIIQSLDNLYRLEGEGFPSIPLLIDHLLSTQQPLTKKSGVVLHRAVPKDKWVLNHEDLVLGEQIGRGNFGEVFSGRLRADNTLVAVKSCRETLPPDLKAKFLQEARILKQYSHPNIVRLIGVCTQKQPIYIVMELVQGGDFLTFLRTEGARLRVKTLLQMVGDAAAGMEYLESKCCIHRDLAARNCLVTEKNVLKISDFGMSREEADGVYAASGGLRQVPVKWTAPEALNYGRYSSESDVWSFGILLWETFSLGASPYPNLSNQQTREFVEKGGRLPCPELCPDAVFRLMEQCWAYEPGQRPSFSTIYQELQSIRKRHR
Chain of RPS6KA2 (Q15349 whole entry): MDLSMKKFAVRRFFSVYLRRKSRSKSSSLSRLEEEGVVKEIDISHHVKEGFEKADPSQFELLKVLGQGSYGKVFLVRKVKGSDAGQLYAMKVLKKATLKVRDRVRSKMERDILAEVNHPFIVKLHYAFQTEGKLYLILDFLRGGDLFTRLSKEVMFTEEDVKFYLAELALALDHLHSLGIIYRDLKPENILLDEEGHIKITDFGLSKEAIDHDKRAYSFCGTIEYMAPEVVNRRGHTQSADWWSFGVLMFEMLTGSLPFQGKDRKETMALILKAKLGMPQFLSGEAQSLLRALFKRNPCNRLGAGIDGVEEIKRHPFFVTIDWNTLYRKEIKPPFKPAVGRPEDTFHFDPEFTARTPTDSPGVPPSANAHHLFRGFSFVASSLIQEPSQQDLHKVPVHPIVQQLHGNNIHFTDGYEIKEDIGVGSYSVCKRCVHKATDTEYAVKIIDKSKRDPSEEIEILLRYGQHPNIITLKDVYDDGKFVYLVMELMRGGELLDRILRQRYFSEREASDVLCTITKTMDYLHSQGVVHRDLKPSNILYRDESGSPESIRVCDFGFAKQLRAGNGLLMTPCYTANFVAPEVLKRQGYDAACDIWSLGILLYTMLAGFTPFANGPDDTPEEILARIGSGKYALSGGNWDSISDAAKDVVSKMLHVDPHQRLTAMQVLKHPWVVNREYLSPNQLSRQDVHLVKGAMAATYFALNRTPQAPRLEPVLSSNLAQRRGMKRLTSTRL
Chain of MARK3 (P27448 whole entry): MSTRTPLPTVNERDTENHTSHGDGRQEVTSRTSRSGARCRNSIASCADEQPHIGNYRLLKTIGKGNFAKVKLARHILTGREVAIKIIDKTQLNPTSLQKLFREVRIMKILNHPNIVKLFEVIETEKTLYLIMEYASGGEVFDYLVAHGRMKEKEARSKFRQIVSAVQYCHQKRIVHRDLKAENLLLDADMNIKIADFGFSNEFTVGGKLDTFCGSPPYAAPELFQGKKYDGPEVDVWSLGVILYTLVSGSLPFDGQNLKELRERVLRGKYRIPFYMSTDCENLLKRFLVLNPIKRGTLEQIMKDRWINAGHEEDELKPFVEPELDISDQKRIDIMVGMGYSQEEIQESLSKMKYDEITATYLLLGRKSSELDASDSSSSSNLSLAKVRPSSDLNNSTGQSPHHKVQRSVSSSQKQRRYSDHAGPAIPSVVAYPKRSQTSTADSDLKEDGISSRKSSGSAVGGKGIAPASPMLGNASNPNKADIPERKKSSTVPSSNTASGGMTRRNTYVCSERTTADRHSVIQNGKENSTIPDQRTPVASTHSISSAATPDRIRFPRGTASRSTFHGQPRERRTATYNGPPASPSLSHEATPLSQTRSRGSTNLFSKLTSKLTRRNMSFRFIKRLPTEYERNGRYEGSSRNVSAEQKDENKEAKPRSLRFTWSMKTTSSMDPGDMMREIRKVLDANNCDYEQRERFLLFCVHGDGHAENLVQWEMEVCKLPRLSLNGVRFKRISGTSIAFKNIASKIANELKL
Chain of DCAMKL2 (Q8N568 whole entry): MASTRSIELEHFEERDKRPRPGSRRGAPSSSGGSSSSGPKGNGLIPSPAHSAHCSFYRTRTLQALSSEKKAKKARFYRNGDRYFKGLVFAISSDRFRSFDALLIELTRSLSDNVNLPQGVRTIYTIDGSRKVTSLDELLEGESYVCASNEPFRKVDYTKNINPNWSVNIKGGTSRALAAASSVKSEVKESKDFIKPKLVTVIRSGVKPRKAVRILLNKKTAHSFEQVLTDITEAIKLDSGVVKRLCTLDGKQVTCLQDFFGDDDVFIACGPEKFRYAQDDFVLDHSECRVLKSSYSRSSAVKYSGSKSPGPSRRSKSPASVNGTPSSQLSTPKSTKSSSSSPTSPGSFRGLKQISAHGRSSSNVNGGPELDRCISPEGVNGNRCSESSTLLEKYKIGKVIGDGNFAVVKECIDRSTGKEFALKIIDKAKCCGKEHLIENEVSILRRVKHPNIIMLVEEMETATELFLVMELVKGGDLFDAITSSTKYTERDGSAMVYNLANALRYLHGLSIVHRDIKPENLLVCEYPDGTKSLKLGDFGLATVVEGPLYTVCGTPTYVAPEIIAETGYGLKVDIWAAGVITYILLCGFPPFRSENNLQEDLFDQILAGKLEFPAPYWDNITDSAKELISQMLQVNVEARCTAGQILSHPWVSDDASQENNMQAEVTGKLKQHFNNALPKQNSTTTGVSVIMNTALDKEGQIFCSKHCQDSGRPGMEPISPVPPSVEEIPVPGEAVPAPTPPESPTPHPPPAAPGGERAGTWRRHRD
Chain of HCK (P08631 whole entry): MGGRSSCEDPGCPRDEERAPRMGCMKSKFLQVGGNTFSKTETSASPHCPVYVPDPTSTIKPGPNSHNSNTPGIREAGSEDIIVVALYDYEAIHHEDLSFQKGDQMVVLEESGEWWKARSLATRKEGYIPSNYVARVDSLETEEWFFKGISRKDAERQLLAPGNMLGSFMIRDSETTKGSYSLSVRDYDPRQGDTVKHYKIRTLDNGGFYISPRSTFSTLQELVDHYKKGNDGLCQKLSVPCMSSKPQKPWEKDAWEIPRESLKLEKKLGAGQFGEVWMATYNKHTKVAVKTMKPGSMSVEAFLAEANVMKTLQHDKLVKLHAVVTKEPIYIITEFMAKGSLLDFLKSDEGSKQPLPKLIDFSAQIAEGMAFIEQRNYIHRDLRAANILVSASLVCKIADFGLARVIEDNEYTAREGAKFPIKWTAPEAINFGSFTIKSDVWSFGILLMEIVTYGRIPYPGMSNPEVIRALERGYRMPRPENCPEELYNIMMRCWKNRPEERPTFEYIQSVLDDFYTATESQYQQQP
Chain of FGF-R1 (P11362 22-822): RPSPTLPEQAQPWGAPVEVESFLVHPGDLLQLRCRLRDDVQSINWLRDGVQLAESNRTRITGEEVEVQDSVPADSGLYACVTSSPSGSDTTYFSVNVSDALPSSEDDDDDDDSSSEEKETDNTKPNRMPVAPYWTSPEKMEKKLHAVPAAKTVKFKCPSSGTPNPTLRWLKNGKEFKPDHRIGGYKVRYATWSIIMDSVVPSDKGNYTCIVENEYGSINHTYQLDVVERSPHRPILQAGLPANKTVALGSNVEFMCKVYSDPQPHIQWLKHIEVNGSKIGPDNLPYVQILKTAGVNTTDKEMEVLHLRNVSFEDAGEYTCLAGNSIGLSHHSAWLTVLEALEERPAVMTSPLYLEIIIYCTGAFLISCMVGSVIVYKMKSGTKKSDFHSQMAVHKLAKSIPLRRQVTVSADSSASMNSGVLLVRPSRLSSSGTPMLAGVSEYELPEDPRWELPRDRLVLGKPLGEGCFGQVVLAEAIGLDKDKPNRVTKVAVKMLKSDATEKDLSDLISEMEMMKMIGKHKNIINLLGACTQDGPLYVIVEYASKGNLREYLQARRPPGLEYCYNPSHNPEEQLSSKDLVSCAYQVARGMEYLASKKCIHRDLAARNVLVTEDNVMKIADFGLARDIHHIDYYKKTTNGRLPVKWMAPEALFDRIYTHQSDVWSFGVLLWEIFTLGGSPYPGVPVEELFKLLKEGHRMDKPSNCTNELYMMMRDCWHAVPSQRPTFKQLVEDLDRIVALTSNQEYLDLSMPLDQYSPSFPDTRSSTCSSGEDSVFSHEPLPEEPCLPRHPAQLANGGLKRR

- residual activity at 1 µM, Mean (BRK): 97 % of control
- residual activity at 1 µM, Mean (PRKG1): 87 % of control
- residual activity at 1 µM, Mean (EPHB3): 96 % of control
- residual activity at 1 µM, Mean (COT): 88 % of control
- residual activity at 1 µM, Mean (GRK5): 95 % of control
- residual activity at 1 µM, Mean (DCAMKL2): 97 % of control
- residual activity at 1 µM, Mean (CSF1-R): 106 % of control
- residual activity at 1 µM, Mean (ERK2): 87 % of control
- residual activity at 1 µM, Mean (MARK3): 100 % of control
- residual activity at 1 µM, Mean (STK33): 87 % of control
- residual activity at 1 µM, Mean (LRRK2): 83 % of control
- residual activity at 1 µM, Mean (TTK): 91 % of control
- residual activity at 1 µM, Mean (B-RAF): 105 % of control
- residual activity at 1 µM, Mean (EPHA1): 92 % of control
- residual activity at 1 µM, Mean (JAK3): 101 % of control
- residual activity at 1 µM, Mean (SNARK): 95 % of control
- residual activity at 1 µM, Mean (CDK4/CycD1): 100 % of control
- residual activity at 1 µM, Mean (CDK3/CycE1): 94 % of control
- residual activity at 1 µM, Mean (RPS6KA2): 97 % of control
- residual activity at 1 µM, Mean (CDC42BPB): 94 % of control
- residual activity at 1 µM, Mean (AKT3): 104 % of control
- residual activity at 1 µM, Mean (CK1-delta): 71 % of control
- residual activity at 1 µM, Mean (CDK9/CycT1): 85 % of control
- residual activity at 1 µM, Mean (HCK): 101 % of control
- residual activity at 1 µM, Mean (EGF-R): 104 % of control
- residual activity at 1 µM, Mean (AXL): 95 % of control
- residual activity at 1 µM, Mean (CK1-gamma1): 92 % of control
- residual activity at 1 µM, Mean (FGF-R1): 97 % of control
- residual activity at 1 µM, Mean (FER): 93 % of control
- residual activity at 1 µM, Mean (S6K-beta): 102 % of control
- residual activity at 1 µM, Mean (ZAK): 94 % of control
- residual activity at 1 µM, Mean (TYK2): 96 % of control
- residual activity at 1 µM, Mean (FRK): 94 % of control
- residual activity at 1 µM, Mean (PHKG2): 94 % of control
- residual activity at 1 µM, Mean (FES): 93 % of control
- residual activity at 1 µM, Mean (PAK1): 103 % of control
- residual activity at 1 µM, Mean (LYN): 77 % of control
- residual activity at 1 µM, Mean (CK2-alpha2): 101 % of control
- residual activity at 1 µM, Mean (GRK4): 49 % of control
Structure (SMILES): COc1ccc2c3ccnc(Cl)c3n(CC#N)c2c1 [AnnH75]
